Assay results taken from the supplement of paper PMC6723410.

System: GUMC-403
Experiment: viability at highest tested concentration (max response) relative to DMSO (% of DMSO control); higher = less cytotoxic
Conditions: library / dose series: MIPE library, 11-point 1:3 dilution; top concentration 46.1 µM; 48 h
In short: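 Plates of 1536 wells were seeded with 700 patient-derived GUMC-403 papilloma cells per well, grown by conditional reprogramming, in 5 μL F + Y medium and kept overnight at 37 °C. Compounds followed at 23 nL by pin tool over an 11-point 1:3 series, for 48 h. After a CellTiter-Glo luminescence read on a ViewLux, signals were set against vehicle wells as 100% and empty wells as 0%. The reported number is viability at the highest tested concentration relative to vehicle control.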

Compound	viability
N[C@H](CSC(c1ccccc1)(c1ccccc1)c1ccccc1)C(=O)O	103
OC(CN1CCN(c2cccc(Cl)c2)CC1)C(c1ccccc1)c1ccccc1 (stereo not given)	92
CC[C@H](CO)Nc1nc(NCc2ccccc2)c2ncn(C(C)C)c2n1	42.6
CC(C(=O)O)c1ccc2c(c1)CC(=O)c1ccccc1S2 (stereo not given)	103
COc1cc([C@@H]2c3cc4c(cc3[C@@H](O)C3COC(=O)C32)OCO4)cc(OC)c1O (stereo not given in full)	117
CCCCC[C@H](O)/C=C/[C@H]1[C@H](O)CC(=O)[C@@H]1C/C=C\CCCC(=O)O	119
CN1c2ccccc2C(=O)N2CCc3c([nH]c4ccccc34)C21 (stereo not given)	102
Cc1c(Cn2c(C)nc3c(C(=O)O)cc(N4CCOCC4)cc32)cccc1C(F)(F)F	76.9
CNC(=O)c1cc(Oc2ccc(NC(=O)Nc3ccc(Cl)c(C(F)(F)F)c3)c(F)c2)ccn1	101
CN1CCN(c2ncc(-c3cc(Cl)cc(Cl)c3Cl)c(N)n2)CC1	119
C/C(=C\c1csc(C)n1)[C@@H]1C[C@@H]2O[C@@H]2CCC[C@H](C)[C@H](O)[C@@H](C)C(=O)C(C)(C)[C@@H](O)CC(=O)O1	114
COC1=CC=C(C=C1)C2CC(=N/N2C3=CC=C(C=C3)[S+](N)([O-])=O)\C4=CC=CC=C4 (stereo not given)	137
O=C1\C=C(OC2=C(C=CC=C12)C3=CC=CC4=C3SC5=C4C=CC=C5)\N6CCOCC6	70.9
CCN(c1ccccc1)c1cc(NC)[n+](C)c(C)n1	115
CC(=O)OCC(=O)[C@@]12\N=C(C)/O[C@@H]1C[C@H]3[C@@H]4CCC/5=C/C(=O)/C=C\[C@]5(C)[C@H]4[C@@H](O)C[C@]23C	112
CC(=O)N(C)c1cccc(-c2ccnc3c(C(=O)c4cccs4)cnn23)c1	106
COc1cc2ncnc(Nc3cccc(Cl)c3)c2cc1OC	98.8
OC[C@H]1OC(O)C[C@@H](O)[C@@H]1O (stereo not given in full)	126
O=C/1NC(=O)C(=C1C2=CN=C3C=CC=C[N]23)/C4=C[N]5CCN(CC6=C5C4=CC=C6)C(=O)N7CCOCC7	60.5
CC(C)(C)C1=NC2=C([NH]1)C3=CC=C(F)C=C3C4=C2\C=C/NC4=O	133

Compound	viability
CCCc1nc(C(C)(C)O)c(C(=O)O)n1Cc1ccc(-c2ccccc2-c2nn[nH]n2)cc1	107
Cc1cc2c(C(C)C)c(O)c(O)c(C=O)c2c(O)c1-c1c(C)cc2c(C(C)C)c(O)c(O)c(C=O)c2c1O	77.1
CC(C)(O)C(=O)Nc1ccc([N+](=O)[O-])c(C(F)(F)F)c1	112
Fc1cc(-c2cccc3ncc(-c4cnn(C5CCNCC5)c4)nc23)cc(F)c1CN1CCOCC1	108
CCCCCC[C@H]1C(=O)O[C@H](C)[C@H](NC(=O)c2cccc(NC=O)c2O)C(=O)O[C@@H](C)[C@@H]1OC(=O)CC(C)C	97.1
O=c1[nH]c(=O)n([C@H]2C[C@H](O)[C@@H](CO)O2)cc1/C=C/Br	116
CN1CCc2c(c3ccccc3n2Cc2ccc(C(=O)NO)cc2)C1	107
CC(C)(C)C(=O)Oc1ccc2c(c1)nc(NC(=O)c1cccc([N+](=O)[O-])c1)n2CCCO	106
Cn1c(Nc2ccc(C(F)(F)F)cc2)nc2cc(Oc3ccnc(-c4nc(C(F)(F)F)c[nH]4)c3)ccc21	92.4
CC(=O)O[C@@]12CO[C@@H]1C[C@H](O)[C@]3(C)[C@@H]2[C@H](OC(=O)C4=CC=CC=C4)[C@]5(O)C[C@H](OC(=O)C(O)[C@@H](NC(=O)OC(C)(C)C)C6=CC=CC=C6)C(=C(/[C@@H](O)C3=O)C5(C)C)/C (stereo not given in full)	103
Nc1n[nH]c2nnc(-c3c(-c4ccccc4)nn4ccccc34)cc12	88.7
COC(=O)C1C2CC3c4[nH]c5cc(OC)ccc5c4CCN3CC2CC(OC(=O)c2cc(OC)c(OC)c(OC)c2)C1OC (stereo not given)	101
C[S+](=O)([O-])OCCCCO[S+](C)(=O)[O-]	134
Nc1nnc(-c2cccc(Cl)c2Cl)c(N)n1	82.5
CN(C)CCC=C1C2=C(C=CC=C2)\C=C/C3=C1C=CC=C3	115
C[C@](O)(CS(=O)(=O)c1ccc(F)cc1)C(=O)Nc1ccc(C#N)c(C(F)(F)F)c1	128
CC(C)(C)c1cc(NC(=O)Nc2ccc(-c3cn4c(n3)sc3cc(OCCN5CCOCC5)ccc34)cc2)no1	121
C/C=C1\C2C=C(C)CC1(N)c1ccc(=O)[nH]c1C2 (stereo not given)	118
C[C@]\1(CCS\C(=N1)N)C2=CC(=C(F)C=C2F)C3=CN=CN=C3	80.2

Same assay, conditions: library / dose series: MIPE library, 11-point 1:3 dilution; top concentration 92.2 µM; 48 h

Compound	viability
C[C@@H](NC1=CC=CC=C1C(O)=O)C/2=C/C(=C\N3C(=O)/C=C(\N=C23)N4CCOCC4)C	34.9
